pIC50: −log10 of the molar value.

The source of these data is patent US8202881B2, “JAK2 inhibitors and their use for the treatment of myeloproliferative diseases and cancer” (Bristol-Meyers Squibb Company, priority 2009, dated 2012).

Experiment [1] has as its target JAK2 (Homo sapiens, UniProt O60674). The experiment can be described thus: JAK2 Tyrosine Kinase Assay. Format: biochemical. Particulars: for pIC50: ATP 30 μM, JAK2 1 nM, 60 min room temperature. The procedure: JAK2 Tyrosine Kinase Assay
The assays were performed in V-bottom 384-well plates. The final assay volume was 30 μL prepared from 15 μL additions of enzyme and substrates (fluoresceinated peptide and ATP) and test compounds in assay buffer (100 mM HEPES pH 7.4, 10 mM MgCl2, 25 mM Beta-Glycerolphosphate, 0.015% Brij35 and 4 mM DTT). The reaction was initiated by the combination of JAK2 with substrates and test compounds. The reaction was incubated at room temperature for 60 min. and terminated by adding 45 μL of 35 mM EDTA to each sample. The reaction mixture was analyzed on the Caliper LabChip 3000 by electrophoretic separation of the fluorescent substrate and phosphorylated product. Inhibition data were calculated by comparison to no enzyme control reactions for 100% inhibition and vehicle-only reactions for 0% inhibition. The final concentration of reagents in the assays is ATP, 30 μM; JAK2 fluorescent peptide, 1.5 μM; JAK2, 1 nM; and DMSO, 1.6%. Dose response curves were generated to determine the concentration required inhibiting 50% of kinase activity (IC50). Compounds were dissolved at 10 mM in dimethylsulfoxide (DMSO) and evaluated at eleven concentrations, each in duplicate. IC50 values were derived by non-linear regression analysis

For experiment [2], the system named is SET-2 cells. The experiment can be described thus: Cell Proliferation Inhibition Assay (3H-thymidine incorporation). The settings on record: Homo sapiens, 72 h with compound. The experiment is classed as cell-based. The procedure:
Cell Proliferation Inhibition Assay
Compounds were evaluated for their ability to inhibit cell proliferation, using an assay that measures thymidine incorporation in the DNA of the dividing cell, which is directly correlated with cell numbers. SET-2 cells were plated at 10000 cells/well in 96-well plates and were cultured for 24 h in RPMI-1640 supplemented with 20% fetal bovine serum, before test compounds were added. Compounds were diluted in culture medium such that the final concentration of dimethyl sulfoxide never exceeded 0.1%. Following the addition of compounds, the cells were cultured for an additional 72 h before cell proliferation was determined by measuring DNA synthesis with 3H-thymidine incorporation.
(Incorporation of labelled thymidine or its analogues reports DNA synthesis.)

Sequence of JAK2 (O60674 whole entry): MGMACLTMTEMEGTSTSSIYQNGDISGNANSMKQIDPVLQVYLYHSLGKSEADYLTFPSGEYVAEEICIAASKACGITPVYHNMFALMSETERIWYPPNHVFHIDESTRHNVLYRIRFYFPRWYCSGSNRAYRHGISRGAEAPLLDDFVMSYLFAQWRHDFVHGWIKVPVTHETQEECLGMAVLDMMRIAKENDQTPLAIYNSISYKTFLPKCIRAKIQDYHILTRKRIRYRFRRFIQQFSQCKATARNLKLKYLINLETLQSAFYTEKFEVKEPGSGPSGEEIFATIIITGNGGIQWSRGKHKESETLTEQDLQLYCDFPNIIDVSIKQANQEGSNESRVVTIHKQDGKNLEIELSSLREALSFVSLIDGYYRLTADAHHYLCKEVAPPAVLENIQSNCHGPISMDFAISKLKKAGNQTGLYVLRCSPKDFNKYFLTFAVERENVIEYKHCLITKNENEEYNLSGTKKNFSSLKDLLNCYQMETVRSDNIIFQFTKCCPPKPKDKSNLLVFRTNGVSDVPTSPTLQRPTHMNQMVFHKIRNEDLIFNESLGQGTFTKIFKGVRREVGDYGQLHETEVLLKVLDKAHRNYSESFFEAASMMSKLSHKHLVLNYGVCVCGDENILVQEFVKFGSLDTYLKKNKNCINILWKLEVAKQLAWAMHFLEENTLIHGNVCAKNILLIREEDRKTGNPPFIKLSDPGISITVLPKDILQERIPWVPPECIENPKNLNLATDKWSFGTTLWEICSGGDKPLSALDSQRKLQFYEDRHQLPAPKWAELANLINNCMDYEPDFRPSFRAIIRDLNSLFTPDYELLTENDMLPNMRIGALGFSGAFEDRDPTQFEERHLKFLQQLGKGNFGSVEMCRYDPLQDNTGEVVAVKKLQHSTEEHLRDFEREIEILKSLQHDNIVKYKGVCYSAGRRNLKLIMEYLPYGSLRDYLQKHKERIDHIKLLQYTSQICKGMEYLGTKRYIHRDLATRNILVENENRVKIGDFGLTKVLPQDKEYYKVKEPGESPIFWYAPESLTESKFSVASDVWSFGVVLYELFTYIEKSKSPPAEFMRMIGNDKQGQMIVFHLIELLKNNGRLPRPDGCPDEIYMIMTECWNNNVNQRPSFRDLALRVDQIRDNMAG

In general, pIC50 refers to −log10 of the IC50, conventionally taken in molar units. For `CCn1c(C(=O)N(C2CC2)C2CC2)cc2c3c(ncn3C)c(Nc3nc(C)c(C(=O)NCC#N)s3)nc21` [Example 61, 4-((5-((cyanomethyl)carbamoyl)-4-methyl-1,3-thiazol-2-yl)amino)-N,N-dicyclopropyl-6-ethyl-1-methyl-1,6-dihydroimidazo[4,5-d]pyrrolo[2,3-b]pyridine-7-carboxamide], the pIC50 in experiment [1] is 9.12.
Regarding `CCn1c(C(=O)N(C2CC2)C2CC2)cc2c3c(ncn3C)c(Nc3nc(C(F)(F)F)c(C)s3)nc21` [Example 29, N,N-dicyclopropyl-6-ethyl-1-methyl-4-(5-methyl-4-(trifluoromethyl)thiazol-2-ylamino)-1,6-dihydroimidazo[4,5-d]pyrrolo[2,3-b]pyridine-7-carboxamide], the pIC50 in experiment [2] was 5.00; in experiment [1], 8.00.
The matching figures for `CCn1nc(Nc2nc3c(cc(C(=O)N(C4CC4)C4CC4)n3CC)c3c2ncn3C)cc1C(=O)NCCNC(C)=O` [Example 109, 4-((5-((2-acetamidoethyl)carbamoyl)-1-ethyl-1H-pyrazol-3-yl)amino)-N,N-dicyclopropyl-6-ethyl-1-methyl-1,6-dihydroimidazo[4,5-d]pyrrolo[2,3-b]pyridine-7-carboxamide]: 5.38 and 8.82.
With `CCNC(=O)c1cc2c(nc(NC)c3ncn(C)c32)[nH]1` [Example No. A171, reference compound], the “activity against JAK2” value in experiment [1] (result in words) is “weak activity”.
With `CCn1c(C(=O)N(C2CC2)C2CC2)cc2c3c(ncn3C)c(Nc3cc(CN4CCOCC4)n(C)n3)nc21` [Example 116, N,N-dicyclopropyl-6-ethyl-1-methyl-4-(1-methyl-5-(morpholinomethyl)-1H-pyrazol-3-ylamino)-1,6-dihydroimidazo[4,5-d]pyrrolo[2,3-b]pyridine-7-carboxamide], the pIC50 is 6.77 in experiment [2] and 8.83 in experiment [1].
`CCn1c(C(=O)N(C2CC2)C2CC2)cc2c3c(ncn3C)c(Nc3ncc(C#N)s3)nc21` [Example 38, 4-(5-cyanothiazol-2-ylamino)-N,N-dicyclopropyl-6-ethyl-1-methyl-1,6-dihydroimidazo[4,5-d]pyrrolo[2,3-b]pyridine-7-carboxamide]: the pIC50 in experiment [2] was 7.22; in experiment [1], 7.40.
`CCn1c(C(=O)N(C2CC2)C2CC2)cc2c3c(ncn3C)c(Nc3nc(CF)cs3)nc21` [Example 3, N,N-dicyclopropyl-6-ethyl-4-(4-(fluoromethyl)thiazol-2-ylamino)-1-methyl-1,6-dihydroimidazo[4,5-d]pyrrolo[2,3-b]pyridine-7-carboxamide]: the pIC50 is 8.00 in experiment [2] and 8.82 in experiment [1].
As to `CCNC(=O)c1nc(Nc2nc3c(cc(C(=O)N(C4CC4)C4CC4)n3CC)c3c2ncn3C)sc1C` [Example 49, 2-(7-(dicyclopropylcarbamoyl)-6-ethyl-1-methyl-1,6-dihydroimidazo[4,5-d]pyrrolo[2,3-b]pyridine-4-ylamino)-N-ethyl-5-methylthiazole-4-carboxamide], the figures for the pIC50 in experiment [2] and in experiment [1] were 5.41 and 7.30, respectively.
`CCn1c(C(=O)N(C2CC2)C2CC2)cc2c3c(ncn3C)c(Nc3cc(C)n(C)n3)nc21` [Example 73, N,N-dicyclopropyl-4-(1,5-dimethyl-1H-pyrazol-3-ylamino)-6-ethyl-1-methyl-1,6-dihydroimidazo[4,5-d]pyrrolo[2,3-b]pyridine-7-carboxamide]: the pIC50 in experiment [2] is 7.22; in experiment [1] it was 9.00.
Turning to `CCn1c(C(=O)N(C2CC2)C2CC2)cc2c3c(ncn3C)c(Nc3nc4c(s3)CS(=O)(=O)CC4)nc21` [Example 33, 4-(5,5-dioxo-4,5,6,7-tetrahydro-5λ^6-thiopyrano[4,3-d]thiazol-2-ylamino)-6-ethyl-1-methyl-1,6-dihydro-1,3,5,6-tetraaza-as-indacene-7-carboxylic acid dicyclopropylamide], the pIC50 is 8.00 in experiment [2] and 9.20 in experiment [1].
For the compound `CCn1nc(Nc2nc3c(cc(C(=O)N(C4CC4)C4CC4)n3CC)c3c2ncn3C)cc1C(=O)O` [Example 101, 3-(7-(dicyclopropylcarbamoyl)-6-ethyl-1-methyl-1,6-dihydroimidazo[4,5-d]pyrrolo[2,3-b]pyridin-4-ylamino)-1-ethyl-1H-pyrazole-5-carboxylic acid], the pIC50 is 5.00 in experiment [2] and 9.13 in experiment [1].
The matching figures for `CCn1c(C(=O)N(C2CC2)C2CC2)cc2c3c(ncn3C)c(Nc3cc(C)n(C4CCC4)n3)nc21` [Example 81, 4-(1-cyclobutyl-5-methyl-1H-pyrazol-3-ylamino)-N,N-dicyclopropyl-6-ethyl-1-methyl-1,6-dihydroimidazo[4,5-d]pyrrolo[2,3-b]pyridine-7-carboxamide]: 6.47 and 7.82.
The matching figures for `CCn1c(C(=O)N(C2CC2)C2CC2)cc2c3c(ncn3C)c(Nc3cnn(C)c3)nc21` [Example 98, N,N-dicyclopropyl-6-ethyl-1-methyl-4-(1-methyl-1H-pyrazol-4-ylamino)-1,6-dihydroimidazo[4,5-d]pyrrolo[2,3-b]pyridine-7-carboxamide]: 8.13 and 9.16.
For the compound `CCn1c(C(=O)N(C2CC2)C2CC2)cc2c3c(ncn3C)c(Nc3nc(C(C)(C)C)cs3)nc21` [Example 4, 4-(4-tert-butylthiazol-2-ylamino)-N,N-dicyclopropyl-6-ethyl-1-methyl-1,6-dihydroimidazo[4,5-d]pyrrolo[2,3-b]pyridine-7-carboxamide], the pIC50 in experiment [2] is 5.60; in experiment [1] it was 7.52.
As to `CCn1c(C(=O)N(C2CC2)C2CC2)cc2c3c(ncn3C)c(Nc3nc(C)c(C(C)=O)s3)nc21` [Example 34, 4-(5-acetyl-4-methylthiazol-2-ylamino)-N,N-dicyclopropyl-6-ethyl-1-methyl-1,6-dihydroimidazo[4,5-d]pyrrolo[2,3-b]pyridine-7-carboxamide], the results for the pIC50 in experiment [2] and in experiment [1] were 6.62 and 8.82, respectively.
The like results for `CCn1c(C(=O)N(C2CC2)C2CC2)cc2c3c(ncn3C)c(Nc3nc(C)c(C(=O)N4CCS(=O)(=O)CC4)s3)nc21` [Example 70] were, in that order, 6.48 and 9.13.
With `CCn1c(C(=O)N(C2CC2)C2CC2)cc2c3c(ncn3C)c(Nc3nc(C)n(C)n3)nc21` [Example 125, N,N-dicyclopropyl-4-(1,5-dimethyl-1H-1,2,4-triazol-3-ylamino)-6-ethyl-1-methyl-1,6-dihydroimidazo[4,5-d]pyrrolo[2,3-b]pyridine-7-carboxamide], the results for the pIC50 in experiment [2] and in experiment [1] were 5.90 and 7.30, respectively.
Take `CCn1c(C(=O)N(C2CC2)C2CC2)cc2c3c(ncn3C)c(Nc3nc(C)c(C(=O)N4CCC4)s3)nc21` [Example 55, 4-(5-(azetidine-1-carbonyl)-4-methylthiazol-2-ylamino)-N,N-dicyclopropyl-6-ethyl-1-methyl-1,6-dihydroimidazo[4,5-d]pyrrolo[2,3-b]pyridine-7-carboxamide]: the results for the pIC50 in experiment [2] and in experiment [1] were 8.37 and 9.13, respectively.
On to `CCn1c(C(=O)N(C2CC2)C2CC2)cc2c3c(ncn3C)c(Nc3nc(C(=O)NC4CCS(=O)(=O)C4)cs3)nc21` (stereo not shown) [Example 15, N,N-dicyclopropyl-4-((4-((1,1-dioxidotetrahydro-3-thiophenyl)carbamoyl)-1,3-thiazol-2-yl)amino)-6-ethyl-1-methyl-1,6-dihydroimidazo[4,5-d]pyrrolo[2,3-b]pyridine-7-carboxamide], for which the pIC50 is 6.31 in experiment [2] and 8.82 in experiment [1].
Turning to `CCn1c(C(=O)N(C2CC2)C2CC2)cc2c3c(ncn3C)c(Nc3nc4cc[nH]c(=O)c4s3)nc21` [Example 35, N,N-dicyclopropyl-6-ethyl-1-methyl-4-(4-oxo-4,5-dihydrothiazolo[5,4-c]pyridin-2-ylamino)-1,6-dihydroimidazo[4,5-d]pyrrolo[2,3-b]pyridine-7-carboxamide], the pIC50 in experiment [2] was 5.55; in experiment [1], 9.27.
As to `CCn1c(C(=O)N(C2CC2)C2CC2)cc2c3c(ncn3C)c(Nc3nc(C)c(C(=O)NCCOC)s3)nc21` [Example 53, 2-(7-(dicyclopropylcarbamoyl)-6-ethyl-1-methyl-1,6-dihydroimidazo[4,5-d]pyrrolo[2,3-b]pyridin-4-ylamino)-N-(2-methoxyethyl)-4-methylthiazole-5-carboxamide], the pIC50 in experiment [2] was 7.00; in experiment [1], 8.83.
